Patent US6281342A, “Pradimicin compounds” (Bristol-Myers Squibb Company, priority 1994, dated 2001)
≈ marks a conversion by molar mass, not a printed value. Read-outs that look alike come from different tables or passages of the source.

How the values were obtained:
Candida albicans 83-2-14 = assay: MIC, two-fold agar dilution, C. albicans 83-2-14; format: cell-based; conditions: 83214, YMA pH 7.0, 28° C., 40 hours
Method in brief: (§1)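 Yeast morphology agar with 1/15 M phosphate buffer (pH 7.0) held the test compound in two-fold dilutions, and cell suspensions at 2×10^6 cells/ml were spotted onto the surface. After 40-hour incubation at 28° C., the MIC was taken as the lowest concentration giving no growth or under five discrete colonies per spot.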

[1] = test system: Candida tropicalis IFO 10241; assay: MIC, two-fold agar dilution, C. tropicalis IFO 10241; format: cell-based; conditions: IFO10241, YMA pH 7.0, 28° C., 40 hours
Method in brief: as §1

[2] = test system: Candida albicans IAM 4888; assay: MIC, two-fold agar dilution, C. albicans IAM 4888; format: cell-based; conditions: IAM4888, YMA pH 7.0, 28° C., 40 hours
Method in brief: as §1

[3] = test system: Saccharomyces cerevisiae ATCC 9763; assay: MIC, two-fold agar dilution, S. cerevisiae ATCC 9763; format: cell-based; conditions: ATCC9763, YMA pH 7.0, 28° C., 40 hours
Method in brief: as §1

[4] = Water solubility at neutral pH in PBS containing Ca^2+/Mg^2+; format: physicochemical; conditions: pbs with ca2+/mg2+; Table 3; water-solubility at neutral pH in phosphate buffered saline containing Ca^2+/Mg^2+
Method: The compounds of the invention have good water solubility. Typically, the water solubility is greater than 10 mg/ml when measured at neutral pH in PBS containing Ca^2+ /Mg^2+, preferably greater than 20 mg/ml.
^2) Water-solubility at neutral pH in phosphate buffered saline
containing Ca^2+ /Mg^2+.

Candida albicans A9540 [5] = assay: MIC, two-fold agar dilution, C. albicans A9540; format: cell-based
Method in brief: as §1

[6] = test system: Cryptococcus neoformans IAM 4514; assay: MIC, two-fold agar dilution, C. neoformans IAM 4514; format: cell-based; conditions: IAM4514
Method in brief: as §1

Candida albicans A9540 [7] = assay: animal or person; format: in vivo, male ICR mice infected with Candida albicans A9540; conditions: Candida albicans; for ED50: Table 2, 95% confidence limits in parentheses, read-out: PD50 (50% protection dose)
Method in brief: (§2)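 Male ICR mice (20-25 g, five per dose) were infected IV with about 10× LD50 of C. albicans A9540 (1×10^6 cells) or A. fumigatus IAM 2034 (1×10^7 cells). Compounds in 10% DMSO were given IV immediately after infection.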

[8] = test system: Aspergillus fumigatus IAM 2034; assay: Therapeutic efficacy in Aspergillus fumigatus systemic infection in mice; format: in vivo, male ICR mice infected with Aspergillus fumigatus IAM 2034; conditions: IAM2034, 480 h; for responders at 6.3 mg/kg: 6.3 mg/kg iv; for responders at 6.3 mg/kg / responders at 12.5 mg/kg / responders at 25 mg/kg / responders at 50 mg/kg: 20th day post-infection, read-out: S/T (No. of survivors/tested) (converted); for responders at 12.5 mg/kg: 12.5 mg/kg iv; for responders at 25 mg/kg: 25 mg/kg iv; for responders at 50 mg/kg: 50 mg/kg iv
Method in brief: as §2

[9] = test system: Candida albicans ATCC 38247; assay: MIC, two-fold agar dilution, C. albicans ATCC 38247; format: cell-based; conditions: ATCC38247, YMA pH 7.0, 28° C., 60 hours (table footnote)
Method in brief: (§3)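 Two-fold agar dilution used yeast morphology agar with 1/15 M phosphate buffer at pH 7.0. Spots of 5 μl held 2×10^6 cells/ml (2×10^7 for T. mentagrophytes) and were incubated at 28 °C for 60 h for both strains. MIC was the lowest concentration giving no growth or fewer than five colonies per spot.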

Candida tropicalis 85-8 = assay: MIC, two-fold agar dilution, C. tropicalis 85-8; format: cell-based; conditions: 858, YMA pH 7.0, 28° C., 40 hours
Method in brief: as §1

[10] = test system: Cryptococcus neoformans D49; assay: MIC, two-fold agar dilution, C. neoformans D49; format: cell-based; conditions: YMA pH 7.0, 28° C., 40 hours
Method in brief: as §1

[11] = test system: Aspergillus fumigatus IAM 2034; assay: MIC, two-fold agar dilution, A. fumigatus IAM 2034; format: cell-based; conditions: IAM2034
Method in brief: as §1

[12] = test system: Trichophyton mentagrophytes #4329; assay: MIC, two-fold agar dilution, T. mentagrophytes #4329; format: cell-based
Method in brief: as §3

[13] = test system: Candida albicans ATCC 32354; assay: MIC, two-fold agar dilution, C. albicans ATCC 32354; format: cell-based; conditions: ATCC32354, YMA pH 7.0, 28° C., 40 hours
Method in brief: as §1

[14] = Candida albicans A9540, YMA pH 7.0, 28° C., 40 hours, read-out: MIC
[15] = Table 3, Candida albicans A9540, YMA, read-out: MIC Ca-4
[16] = Cryptococcus neoformans IAM 4514, YMA pH 7.0, 28° C., 40 hours, read-out: MIC
[17] = Table 3, Cryptococcus neoformans IAM 4514, YMA, read-out: MIC Cn-2
[18] = A9540, 480 h, C. albicans, mice, iv
[19] = A9540, in Mus musculus, iv, 480 h, read-out: S/T (No. of survivors/tested)
[20] = Aspergillus fumigatus, A. fumigatus, mice
[21] = Aspergillus fumigatus, Table 2, A. fumigatus, mice, iv, 95% confidence limits in parentheses, read-out: PD50 (50% protection dose)
[22] = Aspergillus fumigatus IAM 2034, YMA pH 7.0, 28° C., 40 hours, read-out: MIC
[23] = Table 3, Aspergillus fumigatus IAM 2034, YMA, read-out: MIC Af-3
[24] = Table 3, Trichophyton mentagrophytes #4329, YMA, read-out: MIC TM-4
[25] = Trichophyton mentagrophytes #4329, YMA pH 7.0, 28° C., 60 hours, read-out: MIC

COc1cc(O)c2c(c1)C(=O)c1c(cc3c(c1O)-c1c(cc(C)c(C(=O)N[C@H](C)C(=O)O)c1O)[C@H](O[C@@H]1O[C@H](C)[C@H](NC(=N)N[N+](=O)[O-])[C@H](O[C@@H]4OC[C@@H](O)[C@H](O)[C@H]4O)[C@H]1O)[C@H]3O)C2=O [KHM-7, 4'-Nitroquanidinopradimicin C]
MIC (Candida albicans 83-2-14): 6.3 µg/mL (≈ 6.89 µM) | MIC [1]: 12.5 µg/mL (≈ 13.7 µM) | MIC [2]: 3.1 µg/mL (≈ 3.39 µM) | MIC [3]: 3.1 µg/mL (≈ 3.39 µM) | solubility [4]: > 20000 µg/mL | MIC (Candida albicans A9540 [5]; [14]): 3.1 µg/mL (≈ 3.39 µM) | MIC (Candida albicans A9540 [5]; [15]): 3.1 µg/mL (≈ 3.39 µM) | MIC [6, 16]: 1.6 µg/mL (≈ 1.75 µM) | MIC [6, 17]: 1.6 µg/mL (≈ 1.75 µM) | ED50 (Candida albicans A9540 [7]; [18]): 12 mg/kg | responders at 6.3 mg/kg (Candida albicans A9540 [7]; [19]): 40% | responders at 12.5 mg/kg (Candida albicans A9540 [7]; [19]): 60% | responders at 25 mg/kg (Candida albicans A9540 [7]; [19]): 60% | responders at 50 mg/kg (Candida albicans A9540 [7]; [19]): 80% | responders at 6.3 mg/kg [8, 20]: 20% | responders at 12.5 mg/kg [8, 20]: 40% | responders at 25 mg/kg [8, 20]: 0% | responders at 50 mg/kg [8, 20]: 20% | ED50 [8, 21]: > 50 mg/kg | ED50 ([8]; Table 3, Aspergillus fumigatus IAM 2034, iv, read-out: PD50 (mice) Af-3): > 50 mg/kg | MIC [9]: 1.6 µg/mL (≈ 1.75 µM) | MIC (Candida tropicalis 85-8): 12.5 µg/mL (≈ 13.7 µM) | MIC [10]: 3.1 µg/mL (≈ 3.39 µM) | MIC [11, 22]: 3.1 µg/mL (≈ 3.39 µM) | MIC [11, 23]: 3.1 µg/mL (≈ 3.39 µM) | MIC [12, 24]: 3.1 µg/mL (≈ 3.39 µM) | MIC [12, 25]: 3.1 µg/mL (≈ 3.39 µM) | MIC [13]: 3.1 µg/mL (≈ 3.39 µM)

CN[C@@H]1[C@H](O[C@@H]2OC[C@@H](O)[C@H](O)[C@H]2O)[C@@H](O)[C@H](O[C@H]2c3cc(C)c(C(=O)N[C@H](C)C(=O)O)c(O)c3-c3c(cc4c(c3O)C(=O)c3cc(OC)cc(O)c3C4=O)[C@@H]2O)O[C@@H]1C [Pradimicin A, reference compound]
MIC (Candida albicans 83-2-14): > 100 µg/mL | MIC [1]: > 100 µg/mL | MIC [2]: 6.3 µg/mL (≈ 7.49 µM) | MIC [3]: 6.3 µg/mL (≈ 7.49 µM) | solubility [4]: 20 µg/mL (≈ 23.8 µM) | MIC (Candida albicans A9540 [5]; [14]): 12.5 µg/mL (≈ 14.9 µM) | MIC (Candida albicans A9540 [5]; [15]): 12.5 µg/mL (≈ 14.9 µM) | MIC [6, 16]: 1.6 µg/mL (≈ 1.9 µM) | MIC [6, 17]: 1.6 µg/mL (≈ 1.9 µM) | responders at 6.3 mg/kg (Candida albicans A9540 [7]; A9540, 480 h, C. albicans, mice, 6.3 mg/kg iv, 20th day post-infection, read-out: S/T (No. of survivors/tested) (converted)): 0% | responders at 12.5 mg/kg (Candida albicans A9540 [7]; A9540, 480 h, C. albicans, mice, 12.5 mg/kg iv, 20th day post-infection, read-out: S/T (No. of survivors/tested) (converted)): 80% | responders at 25 mg/kg (Candida albicans A9540 [7]; A9540, 480 h, C. albicans, mice, 25 mg/kg iv, 20th day post-infection, read-out: S/T (No. of survivors/tested) (converted)): 100% | responders at 50 mg/kg (Candida albicans A9540 [7]; A9540, 480 h, C. albicans, mice, 50 mg/kg iv, 20th day post-infection, read-out: S/T (No. of survivors/tested) (converted)): 100% | ED50 (Candida albicans A9540 [7]; [18]): 10 mg/kg | responders at 6.3 mg/kg [8, 20]: 0% | responders at 12.5 mg/kg [8, 20]: 20% | responders at 25 mg/kg [8, 20]: 60% | responders at 50 mg/kg [8, 20]: 100% | ED50 [8, 21]: 23 mg/kg | MIC [9]: 3.1 µg/mL (≈ 3.69 µM) | MIC (Candida tropicalis 85-8): > 100 µg/mL | MIC [10]: 1.6 µg/mL (≈ 1.9 µM) | MIC [11, 22]: 1.6 µg/mL (≈ 1.9 µM) | MIC [11, 23]: 0.8 µg/mL (≈ 0.951 µM) | MIC [12, 24]: 3.1 µg/mL (≈ 3.69 µM) | MIC [12, 25]: 3.1 µg/mL (≈ 3.69 µM) | MIC [13]: 3.1 µg/mL (≈ 3.69 µM)
